For three compounds, inhibition and IC50 results are on record in US20260234157A1, “COMPOUND AND METHOD FOR TARGETED DEGRADATION OF ANDROGEN RECEPTOR” (Gan & Lee Pharmaceuticals Co., Ltd., priority 2023, published 2026).

Changes are numbered by the printed parent chain.

The first experiment deals with T1, AR protein (Homo sapiens, UniProt P10275, T878A).
T1 construct: degradation activity of the compounds disclosed in the present disclosure on AR protein in LNCaP cells; host or cells: LNCaP FGC
T1 sequence (P10275 1-920 T878A): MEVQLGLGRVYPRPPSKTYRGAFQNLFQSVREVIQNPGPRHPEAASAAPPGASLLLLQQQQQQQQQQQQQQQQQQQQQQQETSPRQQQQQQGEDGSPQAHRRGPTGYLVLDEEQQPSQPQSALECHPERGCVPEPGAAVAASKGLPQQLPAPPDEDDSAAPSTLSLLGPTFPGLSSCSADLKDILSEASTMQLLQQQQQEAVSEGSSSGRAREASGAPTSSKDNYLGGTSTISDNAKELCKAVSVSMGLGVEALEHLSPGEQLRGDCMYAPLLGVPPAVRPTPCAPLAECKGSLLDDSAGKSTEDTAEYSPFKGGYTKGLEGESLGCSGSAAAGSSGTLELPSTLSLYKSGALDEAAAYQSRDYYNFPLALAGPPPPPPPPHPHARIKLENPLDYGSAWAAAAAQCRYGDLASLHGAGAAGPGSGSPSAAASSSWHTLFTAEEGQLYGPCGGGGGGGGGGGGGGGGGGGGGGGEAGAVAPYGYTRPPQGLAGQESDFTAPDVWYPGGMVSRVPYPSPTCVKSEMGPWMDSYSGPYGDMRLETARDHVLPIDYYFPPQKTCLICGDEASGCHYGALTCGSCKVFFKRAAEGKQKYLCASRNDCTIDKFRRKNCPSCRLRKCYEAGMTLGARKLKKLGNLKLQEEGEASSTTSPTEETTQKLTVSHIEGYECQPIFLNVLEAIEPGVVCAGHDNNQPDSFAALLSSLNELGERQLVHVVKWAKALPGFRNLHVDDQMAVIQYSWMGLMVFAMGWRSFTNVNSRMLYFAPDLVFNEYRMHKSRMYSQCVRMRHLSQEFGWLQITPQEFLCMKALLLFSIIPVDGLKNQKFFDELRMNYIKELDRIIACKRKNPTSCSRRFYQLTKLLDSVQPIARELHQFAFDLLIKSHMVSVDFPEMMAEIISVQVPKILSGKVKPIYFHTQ
Description: Degradation of AR protein in LNCaP cells (Western blot). To be noted: LNCaP cells, compound 10 nM, 8 hours, Western blot grayscale, GAPDH internal reference; read-out: Degradation rates of the AR protein in LNCaP cells, 10 nM (%). Format: cell-based. In a few lines:
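AR assessed by SDS-PAGE/Western blot with infrared imaging; band greyscale normalised to GAPDH gave percent degradation.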
(In general: In western blotting, separated proteins are transferred to a membrane and probed.)
Take `COc1cc(O[C@H]2CC[C@H](NC(=O)c3ccc(N4CCC(CN5CCC6(CC5)COc5c6ccc6c5C(=O)N(C5CCC(=O)NC5=O)C6=O)(OC)CC4)nn3)CC2)ccc1C#N` (stereo partly drawn) [Compound 272]: the inhibition at 0.01 µM came out at 45%.

Regarding `COc1cc(O[C@H]2C(C)(C)[C@H](NC(=O)c3ccc(N4CCC(F)(CN5CCC6(CC5)COc5cc7c(cc56)C(=O)N(C5CCC(=O)NC5=O)C7=O)CC4)cc3)C2(C)C)ccc1C#N` (stereo partly drawn) [Compound 273], the inhibition at 0.01 µM was found to be 2%.

Turning to `COc1cc(O[C@H]2C(C)(C)[C@H](NC(=O)c3ccc(N4CCC(F)(CN5CCC6(CC5)COc5c6ccc6c5C(=O)N(C5CCC(=O)NC5=O)C6=O)CC4)cc3)C2(C)C)ccc1C#N` (stereo partly drawn) [Compound 275], the inhibition at 0.01 µM came to 30%.

The experiment is the same for the next values; noted with them: LNCaP cells, compound 100 nM, 8 hours, Western blot grayscale, GAPDH internal reference; read-out: Degradation rates of the AR protein in LNCaP cells, 100 nM (%).
Turning to `COc1cc(O[C@H]2CC[C@H](NC(=O)c3ccc(N4CCC(CN5CCC6(CC5)COc5c6ccc6c5C(=O)N(C5CCC(=O)NC5=O)C6=O)(OC)CC4)nn3)CC2)ccc1C#N` (stereo partly drawn) [Compound 272], the inhibition at 0.1 µM turned out to be 52%.

As to `COc1cc(O[C@H]2C(C)(C)[C@H](NC(=O)c3ccc(N4CCC(F)(CN5CCC6(CC5)COc5cc7c(cc56)C(=O)N(C5CCC(=O)NC5=O)C7=O)CC4)cc3)C2(C)C)ccc1C#N` (stereo partly drawn) [Compound 273], the inhibition at 0.1 µM is 26%.

Regarding `COc1cc(O[C@H]2C(C)(C)[C@H](NC(=O)c3ccc(N4CCC(F)(CN5CCC6(CC5)COc5c6ccc6c5C(=O)N(C5CCC(=O)NC5=O)C6=O)CC4)cc3)C2(C)C)ccc1C#N` (stereo partly drawn) [Compound 275], the inhibition at 0.1 µM is 54%.

For a further experiment, the target named is T2, AR protein (Homo sapiens, UniProt P10275).
T2 construct: degradation activity of the compounds disclosed in the present disclosure on AR protein in VCaP cells; host or cells: VCaP
T2 sequence (P10275 1-920): T1 sequence (P10275 1-920 T878A) with A878T
Description: Degradation of AR protein in VCaP cells (Western blot). Format: cell-based. The conditions noted are these: compound at 10 nM, 8 hours, read-out: Degradation rate of the AR protein in VCaP cells, 10 nM (%). In a few lines:
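VCaP cells treated with compound alongside solvent controls for 8 h, then lysed in RIPA and protein quantified by BCA. AR detected by SDS-PAGE/Western blot with infrared imaging. Degradation rate calculated from band grayscale, with GAPDH as internal reference.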
Consider `COc1cc(O[C@H]2CC[C@H](NC(=O)c3ccc(N4CCC(CN5CCC6(CC5)COc5c6ccc6c5C(=O)N(C5CCC(=O)NC5=O)C6=O)(OC)CC4)nn3)CC2)ccc1C#N` (stereo partly drawn) [Compound 272], for which the inhibition at 0.01 µM was determined as 38%.

Take `COc1cc(O[C@H]2C(C)(C)[C@H](NC(=O)c3ccc(N4CCC(F)(CN5CCC6(CC5)COc5cc7c(cc56)C(=O)N(C5CCC(=O)NC5=O)C7=O)CC4)cc3)C2(C)C)ccc1C#N` (stereo partly drawn) [Compound 273]: the inhibition at 0.01 µM was -20%.

As to `COc1cc(O[C@H]2C(C)(C)[C@H](NC(=O)c3ccc(N4CCC(F)(CN5CCC6(CC5)COc5c6ccc6c5C(=O)N(C5CCC(=O)NC5=O)C6=O)CC4)cc3)C2(C)C)ccc1C#N` (stereo partly drawn) [Compound 275], the inhibition at 0.01 µM stood at 7%.

Staying with this experiment, now noted: compound at 100 nM, 8 hours, read-out: Degradation rate of the AR protein in VCaP cells, 100 nM (%).
With `COc1cc(O[C@H]2CC[C@H](NC(=O)c3ccc(N4CCC(CN5CCC6(CC5)COc5c6ccc6c5C(=O)N(C5CCC(=O)NC5=O)C6=O)(OC)CC4)nn3)CC2)ccc1C#N` (stereo partly drawn) [Compound 272], the inhibition at 0.1 µM amounted to 75%.

Turning to `COc1cc(O[C@H]2C(C)(C)[C@H](NC(=O)c3ccc(N4CCC(F)(CN5CCC6(CC5)COc5cc7c(cc56)C(=O)N(C5CCC(=O)NC5=O)C7=O)CC4)cc3)C2(C)C)ccc1C#N` (stereo partly drawn) [Compound 273], the inhibition at 0.1 µM is 7%.

Consider `COc1cc(O[C@H]2C(C)(C)[C@H](NC(=O)c3ccc(N4CCC(F)(CN5CCC6(CC5)COc5c6ccc6c5C(=O)N(C5CCC(=O)NC5=O)C6=O)CC4)cc3)C2(C)C)ccc1C#N` (stereo partly drawn) [Compound 275], for which the inhibition at 0.1 µM is 51%.

In a further experiment the test system is LNCaP FGC cells. In words: Inhibition of proliferation of LNCaP cells (WST-8). Format: cell-based. To be noted: Homo sapiens, LNCaP, 96 h, LNCaP FGC cells, 96 hours, WST-8 absorbance at 450 nm; read-out: IC50 for inhibiting the proliferation of LNCaP cells. As to the method: The cells were cultured in a cell culture incubator with 5% CO2 at 37° C. overnight. […] On the sixth day, 96 well plates were taken out, and 20 μL of WST-8 (Beytime, C0040) reagent was added to each well.
(In general: Tetrazolium dyes change colour on reduction, which living cells bring about.)
`COc1cc(O[C@H]2CC[C@H](NC(=O)c3ccc(N4CCC(CN5CCC6(CC5)COc5c6ccc6c5C(=O)N(C5CCC(=O)NC5=O)C6=O)(OC)CC4)nn3)CC2)ccc1C#N` (stereo partly drawn) [Compound 272]: the IC50 was found to be 100 nM.

On to `COc1cc(O[C@H]2C(C)(C)[C@H](NC(=O)c3ccc(N4CCC(F)(CN5CCC6(CC5)COc5cc7c(cc56)C(=O)N(C5CCC(=O)NC5=O)C7=O)CC4)cc3)C2(C)C)ccc1C#N` (stereo partly drawn) [Compound 273], for which the IC50 was found to be 96400 nM.

For `COc1cc(O[C@H]2C(C)(C)[C@H](NC(=O)c3ccc(N4CCC(F)(CN5CCC6(CC5)COc5c6ccc6c5C(=O)N(C5CCC(=O)NC5=O)C6=O)CC4)cc3)C2(C)C)ccc1C#N` (stereo partly drawn) [Compound 275], the IC50 was found to be 240 nM.

A further experiment relates to VCaP cells. Description: Inhibition of proliferation of VCaP cells (WST-8). The class given is cell-based. The conditions noted are these: Homo sapiens; VCaP cells, 168 hours, WST-8 absorbance at 450 nm; read-out: IC50 for inhibiting the proliferation of VCaP cells. In a few lines: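 VCaP FGC cells, 15000 per well in DMEM with 10% FBS, were cultured at 37° C, 5% CO2. On day nine, WST-8 reagent was added to read proliferation.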
Take `COc1cc(O[C@H]2CC[C@H](NC(=O)c3ccc(N4CCC(CN5CCC6(CC5)COc5c6ccc6c5C(=O)N(C5CCC(=O)NC5=O)C6=O)(OC)CC4)nn3)CC2)ccc1C#N` (stereo partly drawn) [Compound 272]: the IC50 is 63 nM.

As for `COc1cc(O[C@H]2C(C)(C)[C@H](NC(=O)c3ccc(N4CCC(F)(CN5CCC6(CC5)COc5cc7c(cc56)C(=O)N(C5CCC(=O)NC5=O)C7=O)CC4)cc3)C2(C)C)ccc1C#N` (stereo partly drawn) [Compound 273], the IC50 turned out to be 970 nM.

Consider `COc1cc(O[C@H]2C(C)(C)[C@H](NC(=O)c3ccc(N4CCC(F)(CN5CCC6(CC5)COc5c6ccc6c5C(=O)N(C5CCC(=O)NC5=O)C6=O)CC4)cc3)C2(C)C)ccc1C#N` (stereo partly drawn) [Compound 275], for which the IC50 was found to be 20 nM.
